The source of these data is patent publication US9687431B2, “Use of isoleucine N-hexadecanoyl as a “volumizing” and/or “plumping” agent for human skin” (SOCIETE D'EXPLOITATION DE PRODUITS POUR LES INDUSTRIES …, priority 2009, dated 2017).

Marks after values point to notes of the source that are not given here.

Common to all, as to assay type: cell-based
The subject of test [1] is normal human preadipocytes. Put plainly: Differentiation of normal human preadipocytes in depleted differentiation medium (Bodipy lipid droplet labeling, image analysis). The settings on record: 15 days. On the procedure: Normal human preadipocytes resulting from abdominal surgical waste from a donor were cultured in monolayer until confluence in the presence of a culture medium comprising PBM-2 (Preadipocyte Basal Medium-2) supplied by the company Lonza, an amount of 10% by volume of FBS (Fetal Bovine Serum) for 100% of the volume of the culture medium, L-glutamine and gentamicin.
Their differentiation into adipocytes was induced by adding a “depleted” differentiation medium comprising a mixture of insulin, dexamethasone, IBMX (isobutyl methyl xanthine) and indomethacin, and used at a dilution rate of 1/10th with respect to a “standard” differentiation medium.
A differentiation phase is also carried out on human preadipocytes as described above and cultured in monolayers as described above, but in the presence of a “standard” differentiation medium, namely a nondiluted mixture of insulin, dexamethasone, IBMX (IsoButyl Methyl Xanthine) and indomethacin, so as to obtain a “control differentiated in standard medium”.
Once the maturity of the preadipocytes was reached, namely after 15 days following the induction described above, the cultures were rinsed with a PBS (Phosphate Buffered Saline) buffer and the intracytoplasmic lipid vesicles were labeled using a specific viable fluorescent probe, Bodipy (500 μg/ml). The nuclei of the differentiated preadipocytes were also labeled using a Hoechst reagent (bisbenzimide), which is also fluorescent, at a concentration of 2 μg/ml, sold by the company Sigma.
Three photographs per well were taken using a Zeiss Axiovert™ 25 inverted epifluorescence microscope fitted with an ×20 objective.
For each test of products tested, including controls, the images obtained with the inverted epifluorescence microscope are analyzed using the Lucia software, allowing quantification of the Bodipy fluorescent label, in order to carry out: • a measurement of the lipid droplet surface area (Sd), • a measurement of the number of differentiated cells (Nc), and • a measurement of the number of total cell nuclei (Nnc).
For each test, the level of adipocyte differentiation (D) is then calculated by relating the lipid droplet surface area to the number of total nuclei according to the following formula: (D)=(lipid droplet surface area)/(number of total cell nuclei).
The following will thus be calculated: • the level of adipocyte differentiation of the control differentiated in depleted medium (subsequently denoted Ddm); • the level of adipocyte differentiation of the control differentiated in standard or complete medium (subsequently denoted Dcm); • the level of adipocyte differentiation of the products tested (N-hexadecanoyl isoleucine, hexadecanoic acid, isoleucine, hexadecanoic acid/isoleucine mixture in a ratio by weight of 65/35) (subsequently denoted Dpt).
For each product tested, the following are then calculated:
a) the percentage restoration of adipocyte differentiation (subsequently denoted RAD) according to the following formula: RAD=[(Dpt−Ddm)/(Dcm−Ddm)]×100
b) the adipocyte surface area (AS) according to the following formula: (AS)=[(lipid droplet surface area Sd)/(number of differentiated cells Nc)]×100
c) the percentage increase in adipocyte surface area (subsequently denoted IAS) relative to the control treated with depleted medium according to the formula: IAS=[adipocyte surface area of the product (ASpt)/adipocyte surface area of the control treated with the depleted medium (ASdm)]×100.
A statistical analysis is then carried out on the data (D) and (AS) using a two-sided Student's test assuming unequal variances. Thus, the population of each of the experimental conditions tested for the parameters (D) and (AS) is compared with the population of the condition of differentiation in the presence of the depleted differentiation medium. An error threshold (p) is set at 5%.

The test system of test [2] is human preadipocytes of passage R7. Description: Adipocyte phenotype restoration in artificially aged (passage R7) preadipocytes, protocol 1 (Oil-Red-O, OD 540 nm). The conditions noted are these: protocol 1: product present during differentiation; 10 μg/ml on a dry extract basis. From the text:
(§1) The term “passage” or “subculturing” or “amplification” denotes here the operation, known to those skilled in the art, consisting in amplifying the cells in question successively by means of culture cycles. Thus, the term “preadipocytes of passage RO” denotes the preadipocytes which have undergone no passage operation as defined above. The term “preadipocytes of passage R1” denotes the preadipocytes which have undergone a single passage operation as defined above. The term “preadipocytes of passage R7” denotes the preadipocytes which have undergone 7 successive passage operations under identical operating conditions.
(§2) • i) Human preadipocytes of passage R1 were cultured in monolayer for 5 days until confluence. […]
The optical density thus measured for the young control is denoted “ODR1”. […]

Test [3] has the same test system. Put plainly: Adipocyte phenotype restoration in artificially aged (passage R7) preadipocytes, protocol 2. The conditions noted are these: protocol 2: product present during 5-day culture until confluence; 10 μg/ml on a dry extract basis.
Excerpt: as §1, §2
The steps of sections a) and b) of protocol 1 are carried out using human preadipocytes of passage R1 and human preadipocytes of passage R7 so as to obtain a “young” control and an “aged” control and the associated optical densities ODR1 and ODR7. The effect of the N-hexadecanoyl isoleucine on human preadipocytes of passage R7 is evaluated according to a variant of the procedure of protocol 1, the first step of which consists in culturing the human preadipocytes of passage R7 in a monolayer for 5 days until confluence in the presence of N-hexadecanoyl isoleucine. […]

The test system is the same in test [4]. Put plainly: Adipocyte phenotype restoration in artificially aged (passage R7) preadipocytes, protocol 3. The settings on record: protocol 3: product present during culture and differentiation; 10 μg/ml on a dry extract basis.
Excerpt: as §1, §2
The effect of the N-hexadecanoyl isoleucine on human preadipocytes of passage R7 is evaluated according to a variant of the procedure of protocol 2, the first step of which consists in culturing the human preadipocytes of passage R7 in a monolayer for 5 days until confluence in the presence of N-hexadecanoyl isoleucine. […]

Setting [5] is: 1.7 μg/ml on a dry extract basis.

For `CCCCCCCCCCCCCCCC(=O)O` [Hexadecanoic acid, hexadecanoic acid], in test [1] (3.3 μg/ml), the “IAS (percentage increase in adipocyte surface area relative to control in depleted medium = 100%)” value amounted to 41%* and the “RAD (percentage restoration of adipocyte differentiation)” value is listed as less than 10%. Also, in test [1] (6.5 μg/ml), the “IAS (percentage increase in adipocyte surface area relative to control in depleted medium = 100%)” value is on record as 62% and the “RAD (percentage restoration of adipocyte differentiation)” value is given as less than 10%.

Consider `CC[C@H](C)[C@H](N)C(=O)O` [Isoleucine, isoleucine], for which, in test [1] (setting [5]), the “IAS (percentage increase in adipocyte surface area relative to control in depleted medium = 100%)” value worked out at 57% and the “RAD (percentage restoration of adipocyte differentiation)” value is given as less than 10%. Further, in test [1] (3.3 μg/ml), the “IAS (percentage increase in adipocyte surface area relative to control in depleted medium = 100%)” value stood at 117% and the “RAD (percentage restoration of adipocyte differentiation)” value is listed as less than 10%.

On to `CCCCCCCCCCCCCCCC(=O)N[C@H](C(=O)O)[C@@H](C)CC` [N-hexadecanoyl isoleucine], for which the “PRR (phenotype restoration rate)” value in test [2] is 16%*; in test [3], 17%*; in test [4], 30%*.
